The text below walks through data of PMC10731806, “Characterization of an iPSC-based barrier model for blood-brain barrier investigations using the SBAD0201 stem cell line” (Fluids and Barriers of the CNS, 2023).

One series relates to GLUT1. The following applies: cited from earlier work.
The next series deals with T1, GLUT-1 (Homo sapiens, UniProt P11166).
T1 construct: endogenous in cells; host or cells: SBAD0201 hiPSC-derived brain capillary endothelial-like cells (BCECs)
T1 sequence (P11166 1-492): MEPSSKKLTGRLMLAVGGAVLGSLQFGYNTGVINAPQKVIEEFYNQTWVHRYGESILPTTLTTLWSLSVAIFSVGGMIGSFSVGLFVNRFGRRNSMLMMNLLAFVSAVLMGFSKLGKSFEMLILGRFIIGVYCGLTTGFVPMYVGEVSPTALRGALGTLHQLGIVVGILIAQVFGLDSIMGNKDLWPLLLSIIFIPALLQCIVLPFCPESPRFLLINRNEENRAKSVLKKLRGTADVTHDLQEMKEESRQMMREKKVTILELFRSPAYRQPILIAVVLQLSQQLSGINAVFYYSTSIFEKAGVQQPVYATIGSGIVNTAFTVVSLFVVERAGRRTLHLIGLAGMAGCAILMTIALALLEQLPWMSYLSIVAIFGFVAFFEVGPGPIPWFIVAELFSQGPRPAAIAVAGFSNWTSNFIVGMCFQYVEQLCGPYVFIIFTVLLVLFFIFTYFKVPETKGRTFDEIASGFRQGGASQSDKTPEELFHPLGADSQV
Description: Apical-to-basolateral transport of GLUT-1 substrates with and without GLUT-1 inhibitors. It is filed as cell-based. The following applies: A-B, glucose-free HBSS, one hour; for effect on apparent permeability of 6-NBDG: 6-NBDG 100 µM; for effect on apparent permeability of [^3H]-glucose: [3H]-glucose 20 nM. Here is the method:
(§1) HBSS without glucose was used for transport assays involving [^3H]-glucose and 6-NBDG, whereas HBSS^+ was used for [^3H]-L-leucine. […] The function of GLUT-1 and LAT-1 were evaluated by co-application of the GLUT-1 inhibitors BAY876 (1 and 10 μM) and phloretin (100 μM) and the LAT-1 inhibitors JPH203 (10 μM) and BCH (100 μM). The inhibitors were added to the transport buffer in both chambers 15 min before the addition of the substrates.

The next series concerns the target T2, LAT-1 (Homo sapiens, UniProt Q01650).
T2 construct: endogenous in cells; host or cells: SBAD0201 hiPSC-derived brain capillary endothelial-like cells (BCECs)
Description: Apical-to-basolateral transport of [3H]-L-leucine with and without LAT-1 inhibitors. It is filed as cell-based. The settings on record: [3H]-L-leucine 9.3 nM, A-B, HBSS+, one hour. How it is done:
as §1

The subject of a further series is P-gp. Description: Bidirectional transport and uptake of P-gp substrates with and without zosuquidar. The settings on record: for vectorial transport (bidirectional): EC-/- medium.

T2 sequence (Q01650 whole entry): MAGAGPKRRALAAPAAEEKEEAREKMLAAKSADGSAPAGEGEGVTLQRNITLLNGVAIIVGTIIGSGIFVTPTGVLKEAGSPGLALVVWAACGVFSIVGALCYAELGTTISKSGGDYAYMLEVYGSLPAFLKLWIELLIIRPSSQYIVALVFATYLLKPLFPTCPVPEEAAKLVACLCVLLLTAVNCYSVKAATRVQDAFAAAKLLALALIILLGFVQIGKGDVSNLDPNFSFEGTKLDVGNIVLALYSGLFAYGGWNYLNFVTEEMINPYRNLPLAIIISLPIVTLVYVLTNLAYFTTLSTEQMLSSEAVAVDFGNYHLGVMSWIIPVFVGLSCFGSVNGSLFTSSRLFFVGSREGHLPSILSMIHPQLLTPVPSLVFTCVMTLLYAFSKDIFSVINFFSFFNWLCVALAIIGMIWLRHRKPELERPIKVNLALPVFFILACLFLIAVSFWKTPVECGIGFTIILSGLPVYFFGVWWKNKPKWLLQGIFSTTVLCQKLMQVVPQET
T2 sequence (P08195 102-630 partner): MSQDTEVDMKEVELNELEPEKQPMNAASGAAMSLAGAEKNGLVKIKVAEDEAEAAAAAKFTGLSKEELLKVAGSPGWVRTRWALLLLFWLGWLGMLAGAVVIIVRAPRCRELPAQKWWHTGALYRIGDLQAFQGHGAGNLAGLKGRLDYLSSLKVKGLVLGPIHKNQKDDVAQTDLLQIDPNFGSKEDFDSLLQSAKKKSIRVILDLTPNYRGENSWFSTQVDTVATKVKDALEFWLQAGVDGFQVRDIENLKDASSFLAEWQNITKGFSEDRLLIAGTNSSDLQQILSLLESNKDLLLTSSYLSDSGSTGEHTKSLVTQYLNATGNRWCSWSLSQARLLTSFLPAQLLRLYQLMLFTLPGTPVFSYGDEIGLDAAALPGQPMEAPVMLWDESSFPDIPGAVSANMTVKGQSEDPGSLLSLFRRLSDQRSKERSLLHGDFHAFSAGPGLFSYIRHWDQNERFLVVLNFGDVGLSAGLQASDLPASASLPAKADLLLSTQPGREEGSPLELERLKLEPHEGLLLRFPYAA

Turning to `Cc1c(NC(=O)c2cc(C(N)=O)nc3cc(F)ccc23)c(C(F)(F)F)nn1Cc1ccc(C#N)cc1` [BAY876], the “selectivity for GLUT1 relative to GLUT2, GLUT3, GLUT4” value with GLUT1 is “at least 130 fold”. Further, on GLUT-1 (10 µM BAY876), the “effect on apparent permeability of 6-NBDG” value is reported as “sensitive to the addition” and the “effect on apparent permeability of [^3H]-glucose” value was “sensitive to the addition”.

Take `NC1(C(=O)O)CC2CCC1C2` (centres unmarked) [BCH]: at LAT-1 (BCH 100 µM), the “effect on transport of [3H]-L-leucine” value was “significantly decreased”.

`Nc1cc(COc2c(Cl)cc(C[C@H](N)C(=O)O)cc2Cl)c2oc(-c3ccccc3)nc2c1` [JPH203]: on LAT-1 (JPH203 10 µM), the “effect on transport of [3H]-L-leucine” value is on record as “significantly decreased”.

Take `C[C@H]1O[C@@H](O[C@H]2[C@@H](O)C[C@H](O[C@H]3[C@@H](O)C[C@H](O[C@H]4CC[C@@]5(C)[C@H](CC[C@@H]6[C@@H]5C[C@@H](O)[C@]5(C)[C@@H](C7=CC(=O)OC7)CC[C@]65O)C4)O[C@@H]3C)O[C@@H]2C)C[C@H](O)[C@@H]1O` [[^3H]-digoxin, digoxin]: in the series with P-gp ([3H]-digoxin 38.2 nM, two hours), the “vectorial transport (bidirectional)” value is reported as “No vectorial transport”.

With `O=C(CCc1ccc(O)cc1)c1c(O)cc(O)cc1O` [phloretin], on GLUT-1 (100 µM phloretin), the “effect on apparent permeability of 6-NBDG” value is “sensitive to the addition” and the “effect on apparent permeability of [^3H]-glucose” value was “sensitive to the addition”.

In the case of `COC(=O)c1ccccc1-c1c2ccc(=N)cc-2oc2cc(N)ccc12` [rhodamine 123], the “vectorial transport (bidirectional)” value with P-gp (rhodamine 123 5 µM, two hours) is listed as “No vectorial transport”.

For `O[C@@H](COc1cccc2ncccc12)CN1CCN([C@@H]2c3ccccc3[C@@H]3[C@H](c4ccccc42)C3(F)F)CC1` [zosuquidar], in the series with P-gp (zosuquidar 0.4 µM, both chambers, two hours), the “effect on transport of rhodamine 123 and [3H]-digoxin” value is listed as “neither the transport nor the uptake of the substrates was affected”. Besides, in the series on P-gp (zosuquidar 0.4 µM, uptake probed after the transport study), the “effect on uptake of rhodamine 123 and [3H]-digoxin” value was “neither the transport nor the uptake of the substrates was affected”.
